Experimental data: patent US20250223295A1, “SOLID STATE FORMS OF RUCAPARIB TOSYLATE” (ASSIA CHEMICAL INDUSTRIES LTD., priority 2022, published 2025)
Entries after “also recorded” stand apart in the source; their conditions may differ.

Columns and labels:
Format in all cases: physicochemical
[1] = Stability to compression (XRPD); conditions: for XRPD analysis results: after 1-5 minutes
Procedure: (§1) A sample is powdered in a mortar and pestle and applied directly on a silicon plate holder. The X-ray powder diffraction pattern was measured with Philips X'Pert PRO X-ray powder diffractometer, equipped with Cu irradiation source=1.54184 Å (Ångström), X'Celerator (2.022° 2θ) detector. Scanning parameters: angle range: 3-40 deg., step size 0.0167, time per step 37 s, continuous scan.
Samples of Rucaparib tosylate form X were subjected to pressures of 1000 kg and 2000 kg. XRPD analysis was performed on the samples after 1-5 minutes.

[2] = Storage stability at different relative humidities (XRPD); conditions: for XRPD analysis results: 7 days
Procedure: as §1
Samples of Rucaparib tosylate form X (about 200 mg each) were subjected to conditions of different relative humidities at ambient temperature. XRPD analysis was performed on the samples after 7 days.
A sample of Rucaparib tosylate form X was subjected to 100% relative humidity at 25° C.

[3] = Exposure to solvent vapour (XRPD); conditions: 25° C., 7 days
Procedure: as §1
Samples of Rucaparib tosylate form X (20-40 mg) were put in small vials and exposed to solvent vapours (2.5 ml each of ethanol, 96%, water and 2-propanol) at 25° C.

[4] = Grinding experiments (XRPD); conditions: for XRPD analysis results: 3 minutes
Procedure: as §1
Samples of Rucaparib tosylate form X were subjected to strong grinding, and to solvent drop grinding in water, ethanol (96%) and 2-propanol. Grinding was carried out on the samples alone, or in the presence of ethanol, water and 2-propanol. In these experiments, about 20-30 mg of the sample were placed in a mortar and ground with a pestle for 3 minutes. The solvent, when used, as added to the crystalline material before grinding, in a volume of 10 microlitres.

[5] = Thermal stability (XRPD); conditions: Heating 100° C., 30 minutes
Procedure: as §1
A sample of Rucaparib tosylate form X was subjected to heating up to 100° C. for 30 minutes.

XRPD analysis results ([1]; Pressure 1000 kg): No change
XRPD analysis results ([1]; Pressure 2000 kg): No change
Stability under high pressure conditions ([1]; pressures of 1000 kg and 2000 kg): stable
XRPD analysis results ([2]; 20% relative humidity, ambient temperature, triplicate): Form X
Stability after exposure to high and low relative humidity ([2]; 20-100% relative humidity, ambient temperature, at least 7 days): stable
XRPD analysis results ([2]; 40% relative humidity, ambient temperature, triplicate): Form X
XRPD analysis results ([2]; 60% relative humidity, ambient temperature, triplicate): Form X
XRPD analysis results ([2]; 80% relative humidity, ambient temperature, triplicate): Form X
XRPD analysis, polymorphic change ([2]; 100% relative humidity, 25° C., 30 days, triplicate): no polymorphic change
XRPD analysis results ([2]; 100% relative humidity, ambient temperature, triplicate): Form X
XRPD analysis results ([3]; 2-propanol vapour): Form X
XRPD analysis results ([3]; Ethanol, 96% vapour): Form X
XRPD analysis results ([3]; Water vapour): Form X
XRPD analysis results ([4]; Solvent-drop grinding (2-propanol), 10 microlitres): Form X
XRPD analysis results ([4]; Solvent-drop grinding (ethanol), 10 microlitres): Form X
XRPD analysis results ([4]; Solvent-drop grinding (water), 10 microlitres): Form X
XRPD analysis results ([4]; Strong grinding): Form X
XRPD analysis after the grinding experiment ([4]; all grinding conditions: alone or with ethanol, water, 2-propanol): no change in the starting material
Substance: Rucaparib Tosylate [Rucaparib tosylate form X]
Result (XRPD analysis) [5]: no change in the starting material; also recorded: Form X
